Measurements reported in patent US20120195847A1 (Nektar Therapeutics, priority 2008, published 2012).

Key:
[1] = biological target: T1, human δ opioid receptor (Homo sapiens, UniProt P41143); assay: Radioligand competition binding assay, δ opioid receptor ([3H]DPDPE); settings: 1 μM; pre-incubated 20 hours
T1 construct: expressed in transfected cells
Procedure: Competition binding experiments were conducted by incubating membrane protein to equilibrium in triplicate in the presence of a fixed concentration of radioligand and increasing concentrations (0.1 nM to 10 μM) of test compound in 100 μL final volume. The radioligands used were specific for each receptor type, and the assay conditions are described in Table BIP6.3. Following incubations, the membranes were rapidly filtered through GF/B filter plate (presoaked with 0.5% polyethyleneimine), washed four times with cold 50 mM Tris-HCl, pH 7.5, and the bound radioactivity was then measured. Non-specific binding was measured in the presence of excess naloxone (100 μM); this value was subtracted from the total binding to yield the specific binding at each test concentration.
The test compounds were stored under acidic condition to stabilize the PEG conjugation.
Ki (affinity of test compound) was obtained using the Cheng Prusoff correction using experimental Kd (affinity of radioligand) values that were previously determined under these assay conditions.

[2] = Stability of the conjugate during purification; assay type: physicochemical; settings: reaction mixture, acidic pH values
[3] = Stability of biphalin during pre-incubation under physiological-like conditions; assay type: physicochemical; settings: 72 hour incubation in assay buffer, pH 7.5 at 37° C.
[4] = test system: mice; settings: intracerebroventricular (i.c.v); cited from earlier work
[5] = test system: mice; settings: intrathecally (i.t.); cited from earlier work

T1 sequence (P41143 whole entry): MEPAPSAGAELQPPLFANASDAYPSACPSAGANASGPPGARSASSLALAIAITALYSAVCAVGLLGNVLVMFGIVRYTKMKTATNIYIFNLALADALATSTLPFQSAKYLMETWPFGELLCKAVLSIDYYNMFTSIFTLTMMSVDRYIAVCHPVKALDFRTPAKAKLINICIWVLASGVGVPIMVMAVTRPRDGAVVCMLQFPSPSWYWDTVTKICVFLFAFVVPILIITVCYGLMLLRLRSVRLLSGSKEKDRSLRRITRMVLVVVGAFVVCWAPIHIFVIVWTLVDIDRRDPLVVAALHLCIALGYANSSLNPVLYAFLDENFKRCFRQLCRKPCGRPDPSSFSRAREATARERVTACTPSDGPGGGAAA

Row | Molecule | inhibition of specific binding at the highest test concentration [1] [%] | stability of the conjugate [2] | stability following incubation [3] | potency in eliciting antinociception compared with morphine [4] [fold] | potency compared with morphine, tail flick testing [5] [fold]
1 | Di-mPEG-SBC-30K-biphalin: releasable di-conjugate of biphalin with N-m-PEG-Benzamide-p-Succinimidyl Carbonate (m-PEG-SBC-30K); not purified | ≤ 50 | instability of the conjugate, even at acidic pH values | – | – | –
2 | C[C@@H](NC(=O)[C@@H](N)Cc1ccc(O)cc1)C(=O)NCC(=O)N[C@@H](Cc1ccccc1)C(=O)NNC(=O)[C@H](Cc1ccccc1)NC(=O)CNC(=O)[C@@H](C)NC(=O)[C@@H](N)Cc1ccc(O)cc1 [Biphalin, Tyr-D-Ala-Gly-Phe-NH-NH-Phe-Gly-D-Ala-Tyr] | – | – | remained stable | 257 | 1000
